# Laboratory results reported in patent US20250354979A1, “DRUG EVALUATION METHOD, REAGENT, AND KIT” (FUJIFILM Corporation, priority 2023, published 2025).
# Tests used:
# [1] = test system: human iPS cell-derived myocardial cells; assay: Heart rate of myocardial cells by MEA, serum-free culture medium with isoproterenol and carbachol added; assay type: cell-based; conditions: serum-free culture medium with 1 μmol/L isoproterenol and 3 μmol/L carbachol; cumulative drug concentrations, 20 minutes after addition; vs medium control
# Method: (§1) Example 4: Method and results of evaluating increase in heart rate by muscarinic receptor inhibitor (atropine) using serum-free culture medium to which adrenergic receptor agonist (isoproterenol) and muscarinic receptor agonist (carbachol) are added Human iPS cell-derived myocardial cells (iCell myocardial cells 2.0, manufactured by FUJIFILM Cellular Dynamics, Inc.) in a frozen state were thawed, suspended in a thawing culture medium (iCell myocardial cell thawing culture medium, manufactured by FUJIFILM Cellular Dynamics, Inc.), and then seeded at a cell density of 50,000 cells per well on a MEA plate (Cyto View MEA 48, manufactured by Axion BioSystems, Inc.). The seeding density of myocardial cells in the vicinity of the electrode was 2,725 cells/mm^2. After the plate was allowed to stand in a CO2 incubator for several hours, a maintenance culture medium (iCell myocardial cell maintenance culture medium, manufactured by FUJIFILM Cellular Dynamics, Inc.) containing serum was added, and the myocardial cells were cultured in the CO2 incubator for about one week. The culture medium was exchanged with a serum-free culture medium (a myocardial cell serum-free assay culture medium, manufactured by FUJIFILM Cellular Dynamics, Inc.) on the day before the measurement.
# (§2) On the day of measurement, the MEA plate on which human iPS cell-derived myocardial cells were cultured was placed in an MEA system (Maestro Pro, manufactured by Axion BioSystems, Inc.), 1 μmol/L of isoproterenol (manufactured by Tokyo Chemical Industry Co., Ltd.) and 3 μmol/L of carbachol (manufactured by Tokyo Chemical Industry Co., Ltd.) were added to the culture medium, and then the extracellular potential was measured after 20 minutes from the addition (medium control, atropine concentration: 0 μmol/L). Subsequently, 0.01 μmol/L of atropine (manufactured by Tokyo Chemical Industry Co., Ltd.) was added to the MEA plate, and then the extracellular potential was measured after 20 minutes from the addition. Similarly, atropine was added to give concentrations of 0.1 μmol/L and 1 μmol/L, and then the extracellular potential was measured at each concentration.
# From the measurement results of the extracellular potential, the interval between sharp peaks indicating depolarization of human iPS cell-derived myocardial cells was taken as the beating time (sec), and the heart rate (/min)=60/beating time (sec) was calculated. The addition of atropine was confirmed to result in an increase in heart rate of up to 51% (FIG. 7).
# In the same manner as in Example 4, evaluation was carried out using an MEA plate on which human iPS cell-derived myocardial cells were cultured. Specifically, the same operations as in Example 4 were carried out except that atropine added in Example 4 was changed to tiotropium (manufactured by Tokyo Chemical Industry Co., Ltd.) and the concentration of tiotropium added was 1 pmol/L, 10 pmol/L, 100 pmol/L, and 1,000 pmol/L.
# In the same manner as in Example 4, evaluation was carried out using an MEA plate on which human iPS cell-derived myocardial cells were cultured. Specifically, the same operations as in Example 4 were carried out except that atropine added in Example 4 was changed to glycopyrronium (manufactured by Tokyo Chemical Industry Co., Ltd.) and the concentration of glycopyrronium added was 0.01 nmol/L, 0.1 nmol/L, 1 nmol/L, and 10 nmol/L.
# In the same manner as in Example 4, evaluation was carried out using an MEA plate on which human iPS cell-derived myocardial cells were cultured. Specifically, the same operations as in Example 4 were carried out except that the atropine added in Example 4 was changed to propranolol (manufactured by FUJIFILM Wako Pure Chemical Corporation) and the concentration of propranolol added was 0.1 nmol/L, 1 nmol/L, 10 nmol/L, and 100 nmol/L.
# In the same manner as in Example 4, evaluation was carried out using an MEA plate on which human iPS cell-derived myocardial cells were cultured. […]
# [2] = test system: human iPS cell-derived myocardial cells; assay: Heart rate of myocardial cells by MEA, serum-free culture medium with isoproterenol added; assay type: cell-based; conditions: serum-free culture medium with 1 μmol/L isoproterenol; cumulative drug concentrations, 20 minutes after addition; vs medium control
# Method: as §1, with “1:” for “4:”, “decrease” for “increase”, “agonist (carbachol)” for “inhibitor (atropine)”, “is” for “and muscarinic receptor agonist (carbachol) are”, “2,671” for “2,725”, “The culture medium was exchanged with a serum-free culture medium (a myocardial cell serum-free assay culture medium, manufactured by FUJIFILM Cellular Dynamics, Inc.) on the day before the measurement.” left out
# as §2, with “Ltd.) was” for “Ltd.) and 3 μmol/L of carbachol (manufactured by Tokyo Chemical Industry Co., Ltd.) were”, “control, carbachol” for “control, atropine”, “of carbachol” for “of atropine”, “Similarly, carbachol” for “Similarly, atropine”, “0.1 μmol/L, 1 μmol/L,” for “0.1 μmol/L”, “and 10” for “and 1”
# From the measurement results of the extracellular potential, the interval between sharp peaks indicating depolarization of human iPS cell-derived myocardial cells was taken as the beating time (sec), and the heart rate (/min)=60/ beating time (sec) was calculated. […]
smiles,measurement,setting,value
C[N+]1(C)[C@@H]2C[C@@H](OC(=O)C(O)(c3cccs3)c3cccs3)C[C@H]1[C@@H]1O[C@@H]12 [tiotropium],increase in heart rate,[1],up to 36%
CC(C)NCC(O)COc1ccc(CC(N)=O)cc1 (stereo not shown) [atenolol],decrease in heart rate,[1],up to 22%
CC1OC2(CS1)CN1CCC2CC1 (stereo not shown) [cevimeline],decrease in heart rate,[2],up to 26%
C[N+]1(C)CCC(OC(=O)C(O)(c2ccccc2)C2CCCC2)C1 (stereo not shown) [glycopyrronium],increase in heart rate,[1],up to 36%
CC[C@@H]1C(=O)OC[C@@H]1Cc1cncn1C [pilocarpine],decrease in heart rate,[2],up to 15%
CC(C)NCC(O)COc1cccc2ccccc12 (stereo not shown) [propranolol],decrease in heart rate,[1],up to 28%
CC(=O)Oc1ccccc1C(=O)O [aspirin],increase in heart rate,[1],at most 17%
